Experimental data reported in patent US7635464B2, “Selective targeting of apoptotic cells” (New South Innovations Pty Limited, priority 2001, dated 2009).
Residues, ends and D or L forms follow the SMILES beside them. *: point of attachment. Cbz = O=C(OCc1ccccc1)*; CH2F = FC*

Legend:
HT1080 cells [1] = experiment: Flow cytometry of GSAO- and annexin V-labeled cells; type: cell-based, human
Experimental: HT1080 cells were treated for 20 h with 1 μg.mL^−1 camptothecin (Calbiochem, San Diego, Calif.), then detached with PBS containing 2.5 mM EDTA and combined with cells that had detached during incubation. The cells were washed twice with annexin V binding buffer (10 mM Hepes, 140 mM NaCl, 2.5 mM CaCl2, pH 7.4), and 2×10^5 cells per treatment were incubated in 100 μL annexin V binding buffer containing 10 μM GSAO-F or GSAA-F for 15 min at room temperature with shaking. The cells were washed twice, then incubated for 15 min in 100 μL annexin V binding buffer containing 5 μl phycoerythrin-conjugated annexin V (annexin V-PE) (PharMingen, San Diego, Calif.) and 1 μl of a 100 μg.mL^−1 solution of propidium iodide (Molecular Probes, Eugene, Oreg.). The total volume was then made up to 500 μl with annexin V binding buffer, and the samples were transferred to ice. Flow cytometry was performed using a FACSstar flow cytometer (Beckton Dickson). Results are derived from 10^4 cells per sample. To test the effect of caspase inhibition on to GSAO-F uptake, cells were treated with camptothecin in the absence or presence of 10 μg.mL^−1 Z-VAD-FMK (carbobenzoxy-valyl-alanyl-aspartyl-[O-methyl]-fluoromethylketone) (Calbiochem-Novabiochem, San Diego, Calif.), then detached, washed and incubated in annexin V binding buffer containing 10 μM GSAO-F for 15 min. The cells were washed twice and subjected to flow cytometry.

HT1080 cells [2] = experiment: Confocal microscopy of GSAO- and annexin V-labelled cells; type: cell-based, human; conditions: camptothecin-treated; 10 μM GSAO-F
Experimental: HT1080 cells were treated for 20 h with 1 μg.mL^−1 camptothecin, then detached with PBS containing 10 mM EDTA, washed with annexin V binding buffer, and incubated for 15 min in annexin V binding buffer containing 10 μM GSAO-F and 1:20 (v/v) Alexa594conjugated annexin V (Molecular Probes, Eugene, Oreg.). The cells were then washed twice with annexin V binding buffer and pipetted onto a microscope slide. Transverse cell sections were captured using an Olympus BX60 microscope and an Optiscan F900e confocal unit and software (Optiscan, Notting Hill, Austrlia).

HT1080 cells [3] = experiment: Labelling of cells with GSAO-B (lysate SDS-PAGE, avidin-peroxidase blot, PDI Western blot); type: cell-based, human; conditions: 5-fold molar excess (50 μM) of dimercaptopropanol
Experimental: HT1080 cells were for 20 h with 1 μg.mL^−1 camptothecin and labeled with 10 μM GSAO and annexin V-PE as described above for labelling with GSAO-F and annexin V-PE. Cells were sorted on the basis of their annexin V-PE fluorescence, washed three times with PBS and 4×10^4 cells were lysed in 40 μL of RIPA buffer (50 mM Tris-HCl, 0.5 M NaCl, 1% Triton X-100, 1% sodium deoxycholate, 0.1% SDS, 10 μM leupeptin, 10 μM aprotinin, 2 mM phenylmethylsulfonyl fluoride, 5 mM EDTA, pH 8.0) at 4° C. Equal amounts of lysate were electrophoresed on an 8-16% gradient SDS-polyacrylamide gel (Gradipore, Sydney), transferred to […] (PVDF) membrane (Millipore, Bedford, Mass.) and biotinylated proteins were detected with a 1:2000 dilution of avidin-peroxidase (Molecular Probes, Eugene, Oreg.). To identify proteins that had incorporated GSAO-B, 20 μl of RIPA lysate was incubated with 5 μl streptavidin-dynabeads (Dynal Biotech, Oslo, Norway) for 15 min at 4° C. The beads were then washed twice with RIPA buffer, resuspended in 20 μl SDS-PAGE loading buffer, resolved on SDS-PAGE, transferred to polyvinylidene difluoride membrane, and the PDI was detected by Western blot using 2 μg.mL^−1 of anti-PDI polyclonal antibodies (Donoghue et al., 2000) and 1:2000 dilution of goat anti-rabbit peroxidase-conjugated antibodies (Dako Corporation, Carpinteria, Calif.). […]

[4] = tested on: human BxPC-3 pancreatic carcinoma tumours; experiment: In vivo near-infrared imaging of BxPC-3 tumours; set-up: species or system SCID mice; conditions: 0.8 mg/kg S.C.
Experimental: (§1) C57BL/6 (Jackson Labs, Bar Harbor, ME) mice bearing S.C. Lewis lung tumours, SCID (Massachusetts General Hospital, Boston, Mass.) bearing S.C. BxPC3 tumours or TRAMP (Greenberg et al., 1995) mice were given 0.8 mg/kg GSAO-Cy™5.5, GSAA-Cy™5.5 or Cy™5.5 dye alone in 0.1 mL of PBS containing 20 mM glycine by S.C. injection in the right hind flank. The S.C. tumours were established in the proximal dorsum.
(§2) The imaging system utilised a Leica Microsystems fluorescence microscope (Allendale, N.J.) with a 100 W halogen lamp source and a filter system for CY™5.5 (Chroma Technology, Brattleboro, Vt.). Anaesthetised mice were restrained in a light proof box and fluorescence detected by a 12-bit monochrome charged coupled device (Photometrics, Tuscon, Ariz.). Exposure time was 8 seconds with images digitally acquired as 16-bit Tiff files in IPLab (Scanalytics, Fairfax, Va.). White light images of the tumours were also acquired.

[5] = tested on: murine Lewis lung tumours; experiment: In vivo near-infrared imaging of Lewis lung tumours; set-up: species or system C57BL/6 mice; conditions: 0.8 mg/kg S.C.
Experimental: as §1, §2

## O=[As]c1ccc(NC(=O)CSC[C@H](NC(=O)CC[C@H](NC(=O)CCSCC(=O)Nc2ccc(-c3c4ccc(=O)cc-4oc4cc(O)ccc34)c(C(=O)O)c2)C(=O)O)C(=O)NCC(=O)O)cc1 (some centres unmarked) [GSAO-F]
HT1080 cells [1]; 10 μM label, 15 min, camptothecin-treated vs untreated cells
  increase in the proportion of cells whose fluorescein fluorescence was greater than 1027 units: 8.6 fold
HT1080 cells [1]; camptothecin-treated cell population, 10 μM label
  mean fluorescein fluorescence: 1400 units
HT1080 cells [1]; untreated cells, 10 μM label
  mean fluorescein fluorescence: 255 units
HT1080 cells [1]; with annexin V-PE and propidium iodide
  binding to apoptotic and dead cells: bound to both apoptotic and dead cells
HT1080 cells [2]
  distribution in annexin V-positive cells: distributed in the cytoplasm
  fluorescence in cells that did not label with annexin V: negligible

## COC(=O)C[C@H](NC(=O)[C@H](C)NC(=O)[C@@H](NC(=O)OCc1ccccc1)C(C)C)C(=O)CF [Z-VAD-FMK, carbobenzoxy-valyl-alanyl-aspartyl-[O-methyl]-fluoromethylketone, reference compound] (Cbz-Val-Ala-Asp(OMe)-CH2F)
HT1080 cells [1]; Z-VAD-FMK 10 μg.mL−1 during camptothecin treatment
  effect on the increase in GSAO-F positive cells seen with camptothecin treatment: substantially blocked

## CC[C@@]1(O)C(=O)OCc2c1cc1n(c2=O)Cc2cc3ccccc3nc2-1 [camptothecin, reference compound]
HT1080 cells [1]; camptothecin 1 μg.mL−1, 20 h vs untreated
  increase in the proportion of cells with phycoerythrin fluorescence greater than 100 fluorescence units (annexin V-positive): 7.3 fold

## OCC(S)CS (centres unmarked) [dimercaptopropanol, 2,3-dimercaptopropanol, reference compound]
HT1080 cells [3]
  effect on labelling of apoptotic cellular proteins by GSAO-B: ablated

## Cy™5.5
[4]
  tumour labelling at 24 hours: Neither GSAA-Cy™5.5 (FIG. 11d(B)) nor Cy™5.5 (FIG. 11d(D)) labelled BxPC3 tumours
[5]
  labelling of Lewis lung tumours by controls: Neither GSAA-Cy™5.5 nor Cy™5.5 labelled
